Where a name gives a salt, the structure may show the parent alone. Read-outs that look alike come from different tables or passages of the source.
Assays:
Type in all cases: physicochemical
[1] = TGA/DSC of salts (Table 14); conditions: 10° C./min
Protocol: TGA/DSC (Table 14): Approximately, 5-10 mg of material was added into a pre-tared open aluminum pan and loaded into a TA Instruments Discovery SDT 650 Auto—Simultaneous DSC and held at room temperature. The sample was then heated at a rate of 10° C./min from 20° C. (ambient) to 400° C. during which time the change in sample weight was recorded along with the heat flow response (DSC). Nitrogen was used as the sample purge gas, at a flow rate of 200 cm3/min.
DSC (Table 14): Approximately, 1-5 mg of material was weighed into an aluminum DSC pan and sealed nonhermetically with an aluminum lid. The sample pan was then loaded into a TA Instruments Discovery DSC 2500 differential scanning calorimeter equipped with a RC90 cooler. The sample and reference were heated to 310° C. at a scan rate of 10° C./min and the resulting heat flow response monitored. The sample was re-cooled to 20° C. and then reheated again to 205° C. all at 10° C./min. Nitrogen was used as the purge gas, at a flow rate of 50 cm^3/min.

[2] = Dynamic vapor sorption of salts (Table 14); conditions: 25° C.
Protocol: DVS (Table 14): Approximately, 10-20 mg of sample was placed into a mesh vapor sorption balance pan and loaded into a DVS Intrinsic dynamic vapor sorption balance by Surface Measurement Systems. The sample was subjected to a ramping profile from 40-90% relative humidity (RH) at 10% increments, maintaining the sample at each step until a stable weight had been achieved (dm/dt 0.004%, minimum step length 30 minutes, maximum step length 500 minutes) at 25° C. After completion of the sorption cycle, the sample was dried using the same procedure to 0% RH and then a second sorption cycle back to 40% RH. Two cycles were performed. Theweight change during the sorption/desorption cycles were plotted, allowing for the hygroscopic nature of the sample to be determined. XRPD analysis was then carried out on any solid retained. […] The sample was subjected to a ramping profile from 40-90% relative humidity (RH) at 10% increments, maintaining the sample at each step until a stable weight had been achieved (dm/dt 0.004%, minimum step length 30 minutes, maximum step length 500 minutes) at 25° C. After completion of the sorption cycle, the sample was dried using the same procedure to 0% RH and then a second sorption cycle back to 40% RH. Two cycles were performed. The weight change during the sorption/desorption cycles were plotted, allowing for the hygroscopic nature of the sample to be determined. XRPD analysis was then carried out on any solid retained.

[3] = Solubility of salts in buffer systems at 37° C. (Table 14); conditions: thermodynamic from solid, 20 mg in 1 mL
Protocol: The solubility (Table 14) was determined by adding 20 mg of salts (Examples 3 to 8) into 3 HPLC vials, to each vial, a magnetic stirrer bar was added along with 1 mL of the appropriate buffer system (pH 1.2 HCl, pH 4.5 sodium acetate, or pH 6.8 phosphate). The samples were agitated at 37° C. for […]. After 24 hours, the slurries were isolated by centrifugation filtration and isolated mother liquors were analyzed by HPLC.
HPLC method (Table 14): A Dionex Ultimate 3000 HPLC instrument was used with a Waters XSelect HSS T3 Column (100 angstrom, 4.6×150 mm, 5 μm). The column temperature was set to 20° C., the UV wavelength set to 254 nm, the injection volume was 10 μL, with a flow rate of 1.0 mL/min. 10 mM ammonium acetate adjusted to pH 4.8 was used as a mobile phase A, and acetonitrile was used as mobile phase B. The gradient method was set up to achieve 15% mobile phase B at 0 minutes, 95% mobile phase B at 17 minutes—held until 22 minutes, 15% mobile phase B at 22.1 minutes—held until 28 minutes.

TGA/DSC Melt/degradation [1]: 197.3 °C | DVS hygroscopic nature [2]: Slightly | DVS Wt. ([2]; up to 70% RH, possible hydration above 70% RH): hygroscopic 0.7% | solubility at 18 h ([3]; pH 1.2 HCl buffer, simulated gastric fluid, pH 1.2 HCl, read-out: Solubility pH 1.2 HCl): > 20000 µg/mL | solubility at 18 h ([3]; pH 4.5 sodium acetate buffer, aqueous buffer, pH 4.5 sodium acetate, read-out: Solubility pH 4.5 Sodium Acetate): 200 µg/mL | solubility at 18 h ([3]; pH 6.8 phosphate buffer, aqueous buffer, pH 6.8 phosphate, read-out: Solubility Ph 6.8 Phosphate): 1300 µg/mL
SMILES: Nc1nccc(Sc2cnc(N3CCC4(CC3)Cc3ccccc3[C@H]4N)nn2)c1Cl [Example 3, (S)-1′-(6-((2-amino-3-chloropyridin-4-yl)thio)-1,2,4-triazin-3-yl)-1,3-dihydrospiro[indene-2,4′-piperidin]-1-amine Mono Succinate Salt Form 1]

Reference: patent US20250214966A1, “Crystalline Salt Form Of A SHP2 Inhibitor” (Array BioPharma Inc., priority 2022, published 2025)
